From PubChem BioAssay AID248 (DTP/NCI, 2004)
Values joined by “and” are separate entries in the source; they are usually repeats but may differ in a detail not shown here. Equal entries are not always repeated. Inconclusive results and toxic doses are left out. Cut-off read from the data, not from the text of the source: active = T/C of 150% or more; inactive = T/C below 125%.

Tested on: L1210 leukemia ip in BDF1 mice, survival T/C
Experiment: NCI In Vivo Anticancer Drug Screen. Data for tumor model L1210 Leukemia (intraperitoneal) in B6D2F1 (BDF1) mice
Conditions: higher = longer survival
Summary of the method: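 Transplantable tumor model; survival measured in treated vs vehicle control mice. Value = treated/control.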

[1] = endpoint: mean survival time, dose: 100.0 mg/kg/injection, schedule: Q01DX009 (ip), vehicle: saline with Tween-80
[2] = endpoint: mean survival time, dose: 100.0 mg/kg/injection, schedule: Q04DX003 (ip), vehicle: Klucel (hydroxypropylcellulose) (HPC)
[3] = endpoint: mean survival time, dose: 200.0 mg/kg/injection, schedule: Q04DX003 (ip), vehicle: Klucel (hydroxypropylcellulose) (HPC)
[4] = endpoint: mean survival time, dose: 400.0 mg/kg/injection, schedule: Q04DX003 (ip), vehicle: Klucel (hydroxypropylcellulose) (HPC)
[5] = endpoint: mean survival time, dose: 100.0 mg/kg/injection, schedule: Q01DX009 (ip), vehicle: Klucel (hydroxypropylcellulose) (HPC)
[6] = endpoint: mean survival time, dose: 200.0 mg/kg/injection, schedule: Q01DX009 (ip), vehicle: Klucel (hydroxypropylcellulose) (HPC)
[7] = endpoint: mean survival time, dose: 400.0 mg/kg/injection, schedule: Q01DX009 (ip), vehicle: Klucel (hydroxypropylcellulose) (HPC)
[8] = endpoint: mean survival time, dose: 100.0 mg/kg/injection, schedule: Q04DX002 (ip), vehicle: Klucel (hydroxypropylcellulose) (HPC)
[9] = endpoint: mean survival time, dose: 200.0 mg/kg/injection, schedule: Q04DX002 (ip), vehicle: Klucel (hydroxypropylcellulose) (HPC)
[10] = endpoint: mean survival time, dose: 400.0 mg/kg/injection, schedule: Q04DX002 (ip), vehicle: Klucel (hydroxypropylcellulose) (HPC)
[11] = endpoint: mean survival time, dose: 100.0 mg/kg/injection, schedule: Q01DX001 (ip), vehicle: saline with Tween-80
[12] = endpoint: mean survival time, dose: 200.0 mg/kg/injection, schedule: Q01DX001 (ip), vehicle: saline with Tween-80
[13] = endpoint: mean survival time, dose: 400.0 mg/kg/injection, schedule: Q01DX001 (ip), vehicle: saline with Tween-80
[14] = endpoint: mean survival time, dose: 75.0 mg/kg/injection, schedule: Q01DX001 (ip), vehicle: carboxymethylcellulose (CMC)

Measured: T/C

O=C(Cn1cnc2c(=S)nc[nH]c21)Oc1ccc([N+](=O)[O-])cc1
inactive: [1] 98 % of control | [2] 96 % of control | [3] 105 % of control | [4] 94 % of control

O=C1C=C(O)c2ccc(=O)[nH]c2C1=O
inactive: endpoint: mean survival time, dose: 100.0 mg/kg/injection, schedule: Q01DX001 (ip), vehicle: saline 95 % of control | endpoint: mean survival time, dose: 200.0 mg/kg/injection, schedule: Q01DX001 (ip), vehicle: saline 98 % of control

c1cc[c]([Sn]([c]2ccccc2)([c]2ccccc2)[CH]2CCCCC2)cc1
inactive: endpoint: mean survival time, dose: 100.0 mg/kg/injection, schedule: Q04DX003 (ip), vehicle: saline 89 % of control | endpoint: mean survival time, dose: 200.0 mg/kg/injection, schedule: Q04DX003 (ip), vehicle: saline 93 % of control | endpoint: mean survival time, dose: 400.0 mg/kg/injection, schedule: Q04DX003 (ip), vehicle: saline 89 % of control

Nc1ccn(C2CC(O)C(CO)O2)c(=O)n1 (stereo not drawn)
inactive: endpoint: median survival time, dose: 75.0 mg/kg/injection, schedule: Q01DX001 (ip), vehicle: other 100 % of control and 101 % of control | endpoint: median survival time, dose: 150.0 mg/kg/injection, schedule: Q01DX001 (ip), vehicle: other 99 % of control and 100 % of control

CCOC(=O)c1cnc(SC)nc1Nc1ccc([N+](=O)[O-])cc1
inactive: endpoint: mean survival time, dose: 25.0 mg/kg/injection, schedule: Q01DX001 (ip), vehicle: Klucel (hydroxypropylcellulose) (HPC) 91 % of control | endpoint: mean survival time, dose: 50.0 mg/kg/injection, schedule: Q01DX001 (ip), vehicle: Klucel (hydroxypropylcellulose) (HPC) 89 % of control | endpoint: mean survival time, dose: 100.0 mg/kg/injection, schedule: Q01DX001 (ip), vehicle: Klucel (hydroxypropylcellulose) (HPC) 90 % of control

COC(=O)c1ccccc1NC(=O)c1c(-c2ccccc2Cl)noc1C
inactive: [5] 99 % of control | [6] 94 % of control | [7] 98 % of control

COC(C)CSP(SCC(C)OC)SCC(C)OC (stereo not drawn)
inactive: endpoint: mean survival time, dose: 25.0 mg/kg/injection, schedule: Q01DX009 (ip), vehicle: Klucel (hydroxypropylcellulose) (HPC) 96 % of control | endpoint: mean survival time, dose: 50.0 mg/kg/injection, schedule: Q01DX009 (ip), vehicle: Klucel (hydroxypropylcellulose) (HPC) 99 % of control | [5] 99 % of control

O=C(NCCCCCSC(=O)c1ccccc1)c1ccccc1
inactive: [8] 90 % of control | [9] 94 % of control | [10] 90 % of control

Nc1ncnc(N)c1NC(=O)c1ccc(C(=O)c2cccc([N+](=O)[O-])c2)cc1
inactive: endpoint: mean survival time, dose: 100.0 mg/kg/injection, schedule: Q01DX001 (ip), vehicle: gum acacia 97 % of control | endpoint: mean survival time, dose: 200.0 mg/kg/injection, schedule: Q01DX001 (ip), vehicle: gum acacia 100 % of control | endpoint: mean survival time, dose: 400.0 mg/kg/injection, schedule: Q01DX001 (ip), vehicle: gum acacia 93 % of control

CCOC(=O)c1c(C)[nH]c(C)cc1=O
inactive: [11] 95 % of control | [1] 98 % of control | [12] 95 % of control | endpoint: mean survival time, dose: 200.0 mg/kg/injection, schedule: Q01DX009 (ip), vehicle: saline with Tween-80 102 % of control | [13] 90 % of control | endpoint: mean survival time, dose: 400.0 mg/kg/injection, schedule: Q01DX009 (ip), vehicle: saline with Tween-80 95 % of control

O=C(CBr)Nc1ccccc1S(=O)(=O)F
inactive: endpoint: mean survival time, dose: 4.68 mg/kg/injection, schedule: Q01DX009 (ip), vehicle: carboxymethylcellulose (CMC) 91 % of control | endpoint: mean survival time, dose: 9.37 mg/kg/injection, schedule: Q01DX009 (ip), vehicle: carboxymethylcellulose (CMC) 91 % of control | endpoint: mean survival time, dose: 18.75 mg/kg/injection, schedule: Q01DX009 (ip), vehicle: carboxymethylcellulose (CMC) 94 % of control | endpoint: mean survival time, dose: 18.75 mg/kg/injection, schedule: Q04DX003 (ip), vehicle: carboxymethylcellulose (CMC) 102 % of control | endpoint: mean survival time, dose: 37.5 mg/kg/injection, schedule: Q04DX003 (ip), vehicle: carboxymethylcellulose (CMC) 102 % of control | [14] 96 % of control

C/C(=C\C(=O)O)c1ccc(-c2ccccc2)cc1
inactive: [11] 96 % of control | [12] 100 % of control | [13] 102 % of control

N#CCc1ccc2[nH]c3c(c2c1)CCCC3
inactive: [8] 106 % of control | [9] 92 % of control | [10] 92 % of control

CC(C)(C)c1cc(C#N)cc(Br)c1O
inactive: endpoint: mean survival time, dose: 25.0 mg/kg/injection, schedule: Q04DX002 (ip), vehicle: saline with Tween-80 102 % of control | endpoint: mean survival time, dose: 50.0 mg/kg/injection, schedule: Q04DX002 (ip), vehicle: saline with Tween-80 97 % of control | endpoint: mean survival time, dose: 100.0 mg/kg/injection, schedule: Q04DX002 (ip), vehicle: saline with Tween-80 97 % of control and 102 % of control

COc1cccc(C(=O)O)c1OC
inactive: endpoint: mean survival time, dose: 100.0 mg/kg/injection, schedule: Q04DX003 (ip), vehicle: saline sonified 95 % of control | endpoint: mean survival time, dose: 200.0 mg/kg/injection, schedule: Q04DX003 (ip), vehicle: saline sonified 95 % of control | endpoint: mean survival time, dose: 400.0 mg/kg/injection, schedule: Q04DX003 (ip), vehicle: saline sonified 97 % of control

COc1cccc(/C=C/c2nccc3ccccc23)c1OC
inactive: [5] 90 % of control | [2] 106 % of control | [6] 91 % of control | [3] 98 % of control | [7] 91 % of control | [4] 90 % of control

COc1ccc2c(ccc[n+]2C)c1
inactive: endpoint: mean survival time, dose: 11.0 mg/kg/injection, schedule: Q01DX009 (ip), vehicle: saline 103 % of control | endpoint: mean survival time, dose: 12.5 mg/kg/injection, schedule: Q01DX009 (ip), vehicle: saline 102 % of control | endpoint: mean survival time, dose: 12.5 mg/kg/injection, schedule: Q04DX003 (ip), vehicle: saline with Tween-80 96 % of control | endpoint: mean survival time, dose: 16.5 mg/kg/injection, schedule: Q01DX009 (ip), vehicle: saline 117 % of control | endpoint: mean survival time, dose: 25.0 mg/kg/injection, schedule: Q01DX009 (ip), vehicle: saline 109 % of control and 110 % of control | endpoint: mean survival time, dose: 25.0 mg/kg/injection, schedule: Q04DX003 (ip), vehicle: saline with Tween-80 102 % of control | endpoint: mean survival time, dose: 33.0 mg/kg/injection, schedule: Q01DX009 (ip), vehicle: saline 113 % of control | endpoint: mean survival time, dose: 37.5 mg/kg/injection, schedule: Q01DX009 (ip), vehicle: saline 115 % of control | endpoint: mean survival time, dose: 50.0 mg/kg/injection, schedule: Q01DX009 (ip), vehicle: saline 115 % of control and 87 % of control | endpoint: mean survival time, dose: 50.0 mg/kg/injection, schedule: Q04DX003 (ip), vehicle: saline with Tween-80 100 % of control | [14] 108 % of control

Nc1cccc2cc3ccccc3nc12
inactive: endpoint: mean survival time, dose: 25.0 mg/kg/injection, schedule: Q04DX003 (ip), vehicle: Klucel (hydroxypropylcellulose) (HPC) 102 % of control | endpoint: mean survival time, dose: 50.0 mg/kg/injection, schedule: Q04DX003 (ip), vehicle: Klucel (hydroxypropylcellulose) (HPC) 92 % of control | [2] 86 % of control

O=C(Nc1ccc(CCO)cc1)c1cccc(F)c1
inactive: [5] 96 % of control | [6] 107 % of control | [7] 91 % of control
